# How the values were obtained:
# [1] = system: Wnt/β-catenin signaling pathway; test: Ability of inhibiting Wnt/β-catenin pathway, luciferase assay (UE7T-13); assay type: cell-based, human; conditions: 8 days after the treatment; pTCF4-CMV-luciferase reporter
# Description: FIG. 3 is a schematic diagram illustrating how to establish a human mesenchymal stem cell stably expressing a β-catenin/TCF4/luciferase reporter gene. FIG. 3 illustrates how to construct pTCF4-CMVpro-GL4.20 plasmid by using a luciferase expression vector. The pTCF4-CMVpro-GL4.20 plasmid contains three TCF4 sequences […] upstream of a CMV promoter to express luciferase. In addition, pCMVpro-GL4.20 plasmid was constructed as a control. The resulting plasmids were each linearized, introduced into UE7T-13 by electroporation, and selected using puromycin (0.25 μg/ml) supplemented in a medium. Puromycin-resistant cells were cloned and used for a luciferase assay.
# The cell line having a vector stably expressing luciferase was seeded on a 24-well plate, and was cultured at 37° C. At the next day, the medium was changed to a medium containing IC-2, etc., and the cell line was further cultured at 37° C. After that, at days 1, 4, and 8, a luciferase assay system (Promega) was used and the luciferase activity was read with a fluorescence plate reader (ARVO) at a wavelength of 556 nm.
# UE7T-13 cells [2] = test: Proliferation potential (toxicity), MTT assay (UE7T-13); conditions: for concentration with very low cell toxicity toward UE7T-13 cells: days 2, 4, 8 of treatment
# UE7T-13 cells [3] = test: Periodic acid-Schiff (PAS) staining (UE7T-13); assay type: cell-based, human
# Procedure: (3-4) Periodic Acid-Schiff (PAS) Staining (UE7T-13) A cover glass (22×22 mm, […]) was sterilized with 70% EtOH and placed in a 6-well plate. Next, cells were seeded on the cover glass and cultured in a medium containing IC-2, etc. At 8, 16, and 24 days after the initiation of the culture, the cells were washed twice with PBS. Then, the cells were treated with 4% paraformaldehyde/PBS for 20 min and fixed onto the cover glass. As a negative control, 10 mg/ml of α-amylase (10 mg/ml; in 0.1 M phosphate buffer solution at pH 6.8) was added, and the cells were incubated therewith at 37° C. for 1 h to digest their glycogen. Subsequently, 1% aqueous periodic acid was used for oxidation treatment for 10 min. After that, the cells were treated with a Schiff reagent for 15 min to stain glycogen. Then, the cells were washed three times with aqueous sulfurous acid and were washed three times with distilled water. After their nuclei were stained with Mayer's hematoxylin, 50% glycerol diluted with PBS was used to mount the cover glass. Finally, the cells were observed under a light microscope. The cells which had been cultured with 0.1% DMSO were used as a control.
# UE7T-13 cells [4] = test: RT-PCR of genes encoding liver-specific secretory proteins and cytokines (UE7T-13); assay type: cell-based, human; conditions: hexachlorophene 0.8 μM or IC-2 15 μM; days 8, 16, 24
# Procedure: Bone marrow-derived mesenchymal stem cells (UE7T-13 cells) were treated with a compound, hexachlorophene (H4625-25G; Sigma-Aldrich, Inc.) or IC-2. At that time, gene expression of each of liver-specific secretory proteins and cytokines was evaluated. […] This time point was set to day 0.
# At the next day corresponding to day 1, the medium was changed to DMEM containing hexachlorophene at a final concentration of 0.8 μM or IC-2 at a final concentration of 15 μM. […] After that, the medium was replaced twice during 8 days, and the cells were subcultured every 8 days. Then, the similar operation was carried out until day 24. At days 8, 16, and 24 after the initiation of the induction, TRIzol (Invitrogen) was used to extract total RNA according to the attached instruction. After the extraction, deoxyribonuclease (Nippon Gene) was added, and the mixture was incubated at 37° C. for 30 min to remove DNA. In a reverse transcription reaction, SuperScriptII Reverse Transcriptase (Invitrogen) and Oligo(dT)15 primer were added to 1 μg of RNA to convert it into cDNA. In a RT-PCR method, the cDNA was diluted by 5 times. Next, 1 μl of the cDNA was used as a template. Then, rTaq DNA polymerase (TOYOBO) was used to amplify the cDNA. MQ water was used as a negative control. cDNA from Huh-7 or UE7T-13 cells was used as a positive control. […]
# [5] = system: CD90+CD271+ bone marrow-derived mesenchymal stem cells; test: Urea assay in CD90+CD271+ bone marrow-derived mesenchymal stem cells; assay type: cell-based, human; conditions: hexachlorophene 4 μM, PN-3-13 20 μM, IC-2 40 μM; day 8 plus 96 h ammonium chloride
# Procedure: A urea assay was performed according to the following protocol. CD90^+CD271^+ bone marrow-derived mesenchymal stem cells were seeded on a 24-well plate at a cell density of 1.8×10^4 cells/cm^2. This day was designated as day 0. At day 1 corresponding to the next day, each medium was changed to a medium containing hexachlorophene (at a final concentration of 4 μM), HC-2 (at a final concentration of 20 μM), PN-3-13 (at a final concentration of 20 μM), IC-2 (at a final concentration of 40 μM), or 0.1% DMSO. At day 4, the medium was changed in a manner similar to that at day 1, and the cells were cultured until day 8. At day 8, the medium was removed, and replaced with a medium containing ammonium chloride (Nacalai Tesque) at a final concentration of 5 mM. The cells were further cultured for 96 h. At 96 h after the addition of ammonium chloride, levels of urea in the medium were determined using a QuantiChrom Urea Assay Kit (BioAssay Systems) according to the attached protocol by reading the absorbance at a wavelength of 520 nm with a microplate reader. The levels of urea were calculated based on a standard sample according to the attached calculation method. As a negative control for the urea assay, used were CD90^+CD271^+ bone marrow-derived mesenchymal stem cells that were seeded one day before the day of the immunostaining and were not subjected to the differentiation induction.
# [6] = system: clinical specimen-derived mesenchymal stem cells; test: RT-PCR of hepatocyte differentiation marker in clinical specimen-derived mesenchymal stem cells; assay type: cell-based, human; conditions: hexachlorophene 4 μM, HC-2 20 μM, PN-3-13 20 μM, IC-2 40 μM
# Procedure: A fresh bone marrow aspirate was collected under informed consent from a patient (a person) with osteoarthritis who underwent replacement arthroplasty at the Department of Orthopedic Surgery, Tottori University Hospital. This aspirate was subjected to density gradient centrifugation using ficoll (Amersham Biosciences) to separate bone marrow mononuclear cells (FIG. 31). These bone marrow mononuclear cells were suspended in 1 ml of Hanks' balanced salt solution (HBSS, Gibco, Life Technologies Corp.) supplemented with a 100-fold diluted APC-labeled anti-CD90 antibody, a 407-fold diluted PE-labeled anti-CD271 antibody, and 2% fetal bovine serum (FBS, Defined, Thermo Fisher Scientific Inc.), and were stained on ice for 30 min. A flow cytometer (MoFlo XDP, Beckman Coulter Inc.) was used to selectively separate mesenchymal stem cells. The resulting cells were cultured in Dulbecco's Modified Eagle's Medium (Low Glucose, Gibco, Life Technologies Corp.) containing 20% FBS, 100 U/ml penicillin, […] streptomycin (Nacalai Tesque), and 20 ng/ml basic fibroblast growth factor (TRANS GENIC INC., Ltd.) on a 35-mm dish under conditions at 37° C. and 5% CO2. The medium was changed every 4 days. After colonies were formed, the cells were detached using a 0.025% trypsin/1 mM EDTA solution (Nacalai Tesque), split on a 100-mm dish, and cultured under conditions at 37° C. and 5% CO2. Then, the cells which were kept 70 to 80% confluent were detached using trypsin treatment. These cells in one dish were divided into four dishes for passage.
# Cells were seeded on a 6-well plate at a cell density of 1.8×10^4 cells/cm^2. This day was designated as day 0. At day 1 corresponding to the next day, the medium was changed to a medium containing any one of hexachlorophene (at a final concentration of 4 μM), HC-2 (at a final concentration of 20 μM), PN-3-13 (at a final concentration of 20 μM), IC-2 (at a final concentration of 40 μM), and 0.1% DMSO. […]
compound,measurement,setting,value
"Cc1ccc(/C=N/NC(=O)c2cccc(Oc3ccccc3)c2)o1 [PN-1-2, N′-[(E)-(5-methyl-2-fulyl)methylidene]-3-phenoxybenzohydrazide]",concentration that significantly inhibited the Wnt/β-catenin signaling pathway,[1],≥ 3 µM
same,concentration at which proliferation potential did not remain,UE7T-13 cells [2]; day 8,10 µM
same,concentration with very low cell toxicity toward UE7T-13 cells,UE7T-13 cells [2],≤ 40 µM
"O=C(N/N=C/c1cccc2ccccc12)c1ccccc1Oc1ccccc1 [PN-3-4, N′-[(E)-1-naphtylmethylidene]-2-phenoxybenzohydrazide]",concentration that significantly inhibited the Wnt/β-catenin signaling pathway,[1],≥ 20 µM
same,concentration with very low cell toxicity toward UE7T-13 cells,UE7T-13 cells [2],≤ 30 µM
"Cc1ccc(C=NNC(=O)c2ccccc2Oc2ccccc2)o1 [PNU-74654, N-[(5-methyl-2-furyl)methylideneamino]-2-phenoxy-benzamide]",intracellular glycogen accumulation compared with negative control (0.1% DMSO),UE7T-13 cells [3],did not increase
"Oc1c(Cl)cc(Cl)c(Cl)c1Cc1c(O)c(Cl)cc(Cl)c1Cl [hexachlorophene, reference compound]",expression of a plurality of the liver-specific secretory proteins and cytokines,UE7T-13 cells [4],increased levels of expression
same,cellular urea synthesis compared with negative control (0.1% DMSO),[5],apparent increase
same,expression of albumin,[6],induced
